Data from ChEMBL document CHEMBL3868606, “Novel 5-nitropyrimidine derivatives bearing endo-azabicyclic alcohols/amines as potent GPR119 agonists” (Bioorg Med Chem, 2017).

Legend:
[1] = target: T1, Glucose-dependent insulinotropic receptor (Homo sapiens, UniProt Q8TDV5); assay: Agonist activity at human GPR119 expressed in HEK293 cells assessed as stimulation of cAMP level measured after 60 mins by HTRF assay; format: functional, cell-based
T1 sequence (Q8TDV5 whole entry): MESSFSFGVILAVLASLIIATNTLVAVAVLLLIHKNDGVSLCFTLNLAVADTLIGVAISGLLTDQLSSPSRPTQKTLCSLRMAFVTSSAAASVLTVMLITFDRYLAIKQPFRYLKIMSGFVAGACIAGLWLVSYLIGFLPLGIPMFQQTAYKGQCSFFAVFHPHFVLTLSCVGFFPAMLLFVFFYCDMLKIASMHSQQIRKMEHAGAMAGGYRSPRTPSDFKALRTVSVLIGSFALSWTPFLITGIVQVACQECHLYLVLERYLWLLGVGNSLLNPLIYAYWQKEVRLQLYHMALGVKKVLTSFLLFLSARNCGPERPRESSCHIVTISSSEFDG

[2] = target: T2, Glucose-dependent insulinotropic receptor (Homo sapiens) (UniProt Q8TDV5); assay: Agonist activity at human GPR119 expressed in HEK293 cells assessed as stimulation of cAMP level measured after 60 mins by HTRF assay relative to OEA; format: functional, cell-based
T2 sequence (whole entry): T1 sequence (Q8TDV5 whole entry)

SMILES | EC50 [1] [nM] | Emax [2] [%]
CS(=O)(=O)c1ccc(Nc2ncnc(NC3C[C@H]4CC[C@H](C3)N4S(=O)(=O)c3ccc(F)cc3)c2[N+](=O)[O-])c(F)c1 (some centres undefined) | > 2000 | 24.8
CS(=O)(=O)c1ccc(Nc2ncnc(NC3C[C@H]4CC[C@H](C3)N4S(C)(=O)=O)c2[N+](=O)[O-])c(F)c1 (relative stereo) | > 2000 | 49.5
CS(=O)(=O)c1ccc(Nc2ncnc(NC3C[C@H]4CC[C@H](C3)N4C(=O)OCC3CC3)c2[N+](=O)[O-])c(F)c1 (relative stereo) | > 2000 | 25.1
CCOC(=O)N1[C@@H]2CC[C@@H]1CC(Nc1ncnc(Nc3ccc(S(C)(=O)=O)cc3F)c1[N+](=O)[O-])C2 (relative stereo) | > 2000 | 32.5
CC(C)(C)OC(=O)N1[C@@H]2CC[C@@H]1CC(Nc1ncnc(Oc3ccccc3Cl)c1[N+](=O)[O-])C2 (relative stereo) | > 2000 | 37.2
CS(=O)(=O)c1ccc(Nc2ncnc(OC3C[C@H]4CC[C@H](C3)N4C(=O)OCC3CC3)c2[N+](=O)[O-])c(F)c1 (relative stereo) | > 2000 | 21.3
CC(C)(C)OC(=O)N1[C@@H]2CC[C@@H]1CC(Nc1ncnc(Nc3ccccc3C#N)c1[N+](=O)[O-])C2 (relative stereo) | > 2000 | 46.2

Compounds with a lower EC50 [1], results first:

EC50 [1] [nM] | Emax [2] [%] | SMILES
3.5 | 88.8 | CS(=O)(=O)c1ccc(Nc2ncnc(OC3C[C@H]4CC[C@H](C3)N4S(=O)(=O)c3ccc(F)cc3)c2[N+](=O)[O-])c(F)c1 (some centres undefined)
0.6 | 103 | CC(C)OC(=O)N1[C@@H]2CC[C@@H]1CC(Oc1ncnc(Nc3ccc(S(C)(=O)=O)cc3F)c1[N+](=O)[O-])C2 (relative stereo)
44.2 | 89.8 | CC(C)(C)OC(=O)N1[C@@H]2CC[C@@H]1CC(Oc1ncnc(Oc3ccccc3Cl)c1[N+](=O)[O-])C2 (relative stereo)
1.6 | 117 | CS(=O)(=O)c1ccc(Nc2ncnc(OC3C[C@H]4CC[C@H](C3)N4S(C)(=O)=O)c2[N+](=O)[O-])c(F)c1 (relative stereo)
1.3 | 114 | CC(C)(C)OC(=O)N1[C@@H]2CC[C@@H]1CC(Nc1ncnc(Nc3ccc(C#N)cc3F)c1[N+](=O)[O-])C2 (relative stereo)
1.5 | 99 | CC(C)(C)OC(=O)N1[C@@H]2CC[C@@H]1CC(Nc1ncnc(Nc3ccc(S(C)(=O)=O)cc3F)c1[N+](=O)[O-])C2 (relative stereo)
6.2 | 54.5 | CC(C)OC(=O)N1[C@@H]2CC[C@@H]1CC(Nc1ncnc(Nc3ccc(S(C)(=O)=O)cc3F)c1[N+](=O)[O-])C2 (relative stereo)
1.5 | 116 | CC(C)(C)OC(=O)N1[C@@H]2CC[C@@H]1CC(Oc1ncnc(Nc3ccc(S(C)(=O)=O)cc3F)c1[N+](=O)[O-])C2 (relative stereo)
205 | 59 | CC(C)(C)OC(=O)N1[C@@H]2CC[C@@H]1CC(Nc1ncnc(Nc3ccc(C#N)cc3Cl)c1[N+](=O)[O-])C2 (relative stereo)
1.4 | 116 | CCOC(=O)N1[C@@H]2CC[C@@H]1CC(Oc1ncnc(Nc3ccc(S(C)(=O)=O)cc3F)c1[N+](=O)[O-])C2 (relative stereo)
